Results as given in publication PMC10518255, “A first-in-class pan-lysyl oxidase inhibitor impairs stromal remodeling and enhances gemcitabine response and survival in pancreatic cancer” (Nature Cancer, 2023).
Several values for one entry are separate records, joined by “and”; a condition that tells them apart may be missing. Identical values can stand only once.

How the values were obtained:
[1] = test system: KPC PDAC tumors; experiment: Bulk modulus (stiffness) by unconfined compression testing of end-point KPC tumors; format: in vivo, mouse; set-up: key to Bulk modulus (stiffness) by unconfined compression testing: bulk elastic modulus in kPa; settings: for tumor bulk modulus (stiffness): end-point KPC tumors; for Bulk modulus (stiffness) by unconfined compression testing: endpoint PDAC tumours, individual tumours
Description: Fig. 4 PXS-5505 administered in a KPC in vivo survival study. a, Schematic of the KPC in vivo survival study. Presence of a primary tumor in KPC mice was confirmed by two independent researchers (positive diagnosis) before commencement of daily treatment (Tx) on one of four treatment arms as follows: vehicle, 0.9% saline; Gem, twice-weekly gemcitabine (100 mg kg^−1 i.p.); PXS-5505, daily PXS-5505 at 20 mg kg^−1 i.p.; and PXS-5505 + Gem, daily PXS-5505 at 20 mg kg^−1 i.p. + twice-weekly gemcitabine (100 mg kg^−1 i.p.). b, Table of median survival (since diagnosis/commencement of treatment) across the four treatment groups (n = 30 biologically independent animals (vehicle), n = 31 biologically independent animals (Gem), n = 36 biologically independent animals (PXS-5505), n = 46 biologically independent animals (PXS-5505 + Gem)). c, Kaplan–Meier curves for overall survival across treatment arms (n = 30 biologically independent animals (vehicle), n = 31 biologically independent animals (Gem), n = 36 biologically independent animals (PXS-5505), n = 46 biologically independent animals (PXS-5505 + Gem)). P values determined by log-rank (Mantel–Cox) test. d, Representative maximum intensity projections of SHG multiphoton imaging for tumors from each treatment group (n = 1 FOV taken from one biologically independent animal per group) at end point (scale bars, 100 μm) and quantification of SHG peak signal intensity (n = 5 biologically independent animals per group and five FOV per animal). Data are mean ± s.d. […] Quantification of metastases (n = 18 biologically independent animals (vehicle), n = 18 biologically independent animals (Gem), n = 17 biologically independent animals (PXS-5505), n = 15 biologically independent animals (PXS-5505 + Gem)). Data are mean ± s.d.
Unconfined compression of in vivo tissue samples was carried out on 2–3-mm cross-sectional slices using a TA Instruments Dynamic Hybrid Rheometer (DHR-3, TA Instruments). Tissue samples were placed between upper and lower parallel plate geometries. A constant linear compressive rate of 5 µm s^−1 was applied to the samples and axial force (N) and gap (mm) were collected every 0.01 s. Data were processed and a stress–strain curve for each replicate was obtained. Bulk elastic modulus (kPa) was obtained as the gradient of the linear region of the stress–strain curve corrected for cross-sectional area of sample. Data points represent individual biological replicates.

[2] = test system: Lysyl oxidase family activity in aorta; experiment: Lysyl oxidase family activity in aorta of KPC tumor bearing mice at end point, fluorometric activity assay; format: in vivo, mouse; settings: for Lysyl oxidase family activity measured in the aorta of KPC tumour bearing mice at endpoint (signal over noise): Extended Data 5A, fluorometric activity assay, noise measured with 300 µM ßAPN, individual animals
Description: KPC mice were treated from the time at which palpable tumors were detected (typically 10 to 12 weeks of age) and continued until the study end point. Mice were treated daily with PXS-5505 (20 mg kg^−1 i.p.) or vehicle (0.9% saline) and twice weekly with gemcitabine (100 mg kg^−1 i.p.) or vehicle (0.9% saline).
Extended Data Fig. 5 PXS-5505 in combination with gemcitabine in vivo. a. […] Signal is defined as the enzyme activity in the aorta, while noise is measured in the presence of a high concentration (300 µM) BAPN to abolish any lysyl oxidase family activity. […] Data presented as mean values +/− SD b. […] Data presented as mean values +/− SD. c. FITC-dextran (molecular weight: 10 kDa) signal quantification from KPC tumor end point from each treatment group (vehicle n = 3 biologically independent animals, PXS-5505 n = 5 biologically independent animals, Gem n = 5 biologically independent animals, PXS-5505 + Gem n = 5 biologically independent animals). 4 ROIs taken per mouse. P-values determined by Welchs t-test. Data presented as mean values +/− SD. Scale bars = 100 μm d. Quantification of red birefringent (mature) collagen fibers from human PDXs at end point after 3 cycles of treatment, treated as indicated. […] Data presented as mean values +/− SD. Scale bars = 100 μm e. Quantification of bulk modulus (stiffness) by unconfined compression testing of end point human PDX tumors from each treatment group (vehicle n = 5 biologically independent animals, Gem n = 5 biologically independent animals, PXS-5505 n = 5 biologically independent animals, PXS-5505 + Gem n = 5 biologically independent animals) [individual tumors shown]). […] FITC-dextran (molecular weight 10 kDa) signal quantification from human PDXs from each treatment group (vehicle n = 4 biologically independent animals, PXS-5505 n = 5 biologically independent animals, Gem n = 5 biologically independent animals, PXS-5505 + Gem n = 5 biologically independent animals). […] P values determined by Welchs t-test. g. […] Quantification of green birefringent (nascent) collagen fibers from human PDXs at end point, treated as indicated. […]

Row | SMILES | tumor bulk modulus (stiffness) [1] | Bulk modulus (stiffness) by unconfined compression testing [1] | Lysyl oxidase family activity measured in the aorta of KPC tumour bearing mice at endpoint (signal over noise) [2] | lysyl oxidase family activity in the aorta at end point ([2]; KPC tumor bearing mice)
1 | Nc1ccn([C@@H]2O[C@H](CO)[C@@H](O)C2(F)F)c(=O)n1 [Gem, gemcitabine] | 20.0 kPa | 26.381 and 11.231 and 14.142 and 18.28 and 20.014 | 2.059 and 2.616 and 2.089 and 2.043 and 2.04 and 2.065 and 2.364 | –
2 | Cl.Cl.NC/C=C(\F)CS(=O)(=O)c1cccc2cccnc12.O [PXS-5505, (Z)-3-fluoro-4-(quinolin-8-ylsulfonyl)but-2-en-1-amine dihydrochloride monohydrate] | moderate reduction in stiffness | 1.01 and 4.478 and 8.389 and 5.347 and 1.487 | 1.144 and 1.3025 and 1.519 and 1.787 and 1.62 and 1.558 | confirming lysyl oxidase family inhibition
